Data taken from article PMC5751305, “In Silico Screening and In Vitro Activity Measurement of Javamide Analogues as Potential p38 MAPK Inhibitors” (International Journal of Molecular Sciences, 2017).
Values belong to the compound of their own block, whether it stands above or below them.

Experiments:
Format in all cases: biochemical
[1] = target: T1, p38 α (Homo sapiens, UniProt Q16539); assay: ADP-Glo kinase assay (Promega CMGC-1), % inhibition at […]
T1 construct: gene MAPK14

[2] = target: T1, p38 α; assay: ADP-Glo kinase assay (Promega CMGC-1 kinase selectivity profiling system), dose response […]
[3] = target: T1, p38 α; assay: ADP-Glo kinase assay (Promega CMGC-1 kinase selectivity profiling system)

T1 sequence (Q16539 2-360): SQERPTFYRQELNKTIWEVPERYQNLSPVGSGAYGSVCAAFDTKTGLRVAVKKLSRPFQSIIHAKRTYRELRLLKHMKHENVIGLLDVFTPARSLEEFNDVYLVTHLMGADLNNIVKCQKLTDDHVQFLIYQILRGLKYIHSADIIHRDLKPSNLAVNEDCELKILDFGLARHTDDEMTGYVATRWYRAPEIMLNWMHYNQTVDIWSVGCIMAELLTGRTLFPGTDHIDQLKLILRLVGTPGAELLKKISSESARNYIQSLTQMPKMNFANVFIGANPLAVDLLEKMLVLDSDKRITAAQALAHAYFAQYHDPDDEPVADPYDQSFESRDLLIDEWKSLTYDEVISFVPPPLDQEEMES

inhibition at 5 µM [1]: 31.5%
SMILES: O=C(/C=C/c1ccc(O)c(O)c1)N[C@@H](Cc1c[nH]c2ccccc12)C(=O)O [Javamide-II, javamide-II]

IC50 [2]: 9.9 µM
SMILES: CCOC(=O)[C@H](Cc1c[nH]c2ccccc12)NC(=O)/C=C/c1ccc(O)c(O)c1 [Javamide-II-ethyl, javamide-II-O-ethyl ester]

IC50 [3]: 12 µM
SMILES: COC(=O)[C@H](Cc1c[nH]c2ccccc12)NC(=O)/C=C/c1ccc(O)c(O)c1 [Javamide-II-methyl, Methyl (E)-(3-(3,4-dihydroxyphenyl)acryloyl) tryptophanate]
